# Reference: US20100249461A1, “TRIARYLAMINE DERIVATIVE” (priority 2007, published 2010)
# Assays:
# Assay type in all cases: physicochemical
# [1] = Heat resistance of PMMA film sample (colorant residual rate); details: 5% by weight in PMMA film on PET; 80° C. for 400 hours; absorbance at maximum absorption wavelength after vs before
# Experimental: (§1) 2.5 g of PMMA and 0.125 g of the triarylamine derivative were dissolved in 25 ml of dichloromethane, and the solution was coated on a 100 μm-thick PET film. This was dried at 80° C. for 2 hours under reduced pressure to prepare a sample for assessment having a thickness of from 2 to 3 μm. The sample for assessment contained the triarylamine derivative at 5% by weight based on PMMA.
# (§2) The sample for assessment obtained above was heat-treated at 80° C. for 400 hours. The absorbance of the assessment sample at the maximum absorption wavelength of the triarylamine derivative (colorant) was measured, and a colorant residual rate (%) was obtained as a ratio of the absorbance after heat treatment relative to the absorbance before heat treatment.
# [2] = Wet heat resistance of PMMA film sample (colorant residual rate); details: 5% by weight in PMMA film on PET; 60° C. and relative humidity of 90% for 200 hours; absorbance after vs before
# Experimental: as §1
# as §2, with “subjected to wet heat treatment” for “heat-treated”, “60°” for “80°”, “C. and a relative humidity of 90%” for “C.”, “200” for “400”, “after wet” for “after”, “before wet” for “before”
# [3] = Light resistance of PMMA film sample (colorant residual rate); details: 5% by weight in PMMA film on PET; xenon lamp 170,000 lux, UV cut filter, 170 hours; absorbance after vs before
# Experimental: as §1
# as §2, with “irradiation-treated” for “heat-treated at 80° C.”, “170 hours with a xenon lamp (170,000 lux, using an UV cut filter).” for “400 hours.”, “irradiation” for “heat”
# [4] = Solubility in 2-butanone (MEK)
# Experimental: Solubility (w/v %) of the triarylamine derivative in 2-butanone (MEK) was measured.
SMILES,Heat Resistance (colorant residual rate) [1] [%],Wet Heat Resistance (colorant residual rate) [2] [%],Light Resistance (colorant residual rate) [3] [%],Solubility (w/v) [4] [% w/v %]
CCCCN(CCCC)c1ccc([N+](=C2C=CC(=[N+](CCCC)CCCC)CC2)c2ccc(N(CCCC)CCCC)cc2)cc1 [drawing 14],80,45,98,16
CCCCN(CCCC)c1ccc([N+](=C2C=CC(=[N+](CCCC)CCCC)CC2)c2ccc(N(CCCC)CCCC)cc2)cc1 [drawing 15],0,19,80,15
